This passage reports EC50 and Max % results from patent US9988400B2 (Genentech, Inc., priority 2013, dated 2018).

This assay has as its target T1, HEK cells stably transfected with tetracycline inducible hNR1 and hNR2A (Homo sapiens, UniProt Q05586+Q12879).
T1 construct: expressed in transfected cells; host or cells: HEK cells, stably transfected, tetracycline/doxycycline inducible
Nature of the assay: Assay 1: Cell-Based Assay, cytosolic calcium response to positive allosteric modulators (with 30 μM glycine and 300 nM L-glutamate, EC30). The following applies: for EC50: cytosolic calcium response, with 30 μM glycine and 300 nM L-glutamate (EC30), — = no plateau was reached; for Max %: responses scaled relative to 100 μM L-glutamate maximal response (100%) and 0 μM L-glutamate (0%). An outline of the steps:
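Cells induced 24 h with 7.5 μg mL^−1 doxycycline plus 500 μM (+)-ketamine, loaded 60 min at 37 °C with calcium dye in Mg-free HBSS (1.8 mM Ca, probenecid, 10 μM (+)-ketamine, pH 7.15). Peak RFU over 5 min after compound addition, scaled to 100 μM L-glutamate (100%) and 0 μM (0%); four-parameter Hill fit for EC50, max % if no plateau.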

T1 sequence (Q12879 23-1464, other chains not shown): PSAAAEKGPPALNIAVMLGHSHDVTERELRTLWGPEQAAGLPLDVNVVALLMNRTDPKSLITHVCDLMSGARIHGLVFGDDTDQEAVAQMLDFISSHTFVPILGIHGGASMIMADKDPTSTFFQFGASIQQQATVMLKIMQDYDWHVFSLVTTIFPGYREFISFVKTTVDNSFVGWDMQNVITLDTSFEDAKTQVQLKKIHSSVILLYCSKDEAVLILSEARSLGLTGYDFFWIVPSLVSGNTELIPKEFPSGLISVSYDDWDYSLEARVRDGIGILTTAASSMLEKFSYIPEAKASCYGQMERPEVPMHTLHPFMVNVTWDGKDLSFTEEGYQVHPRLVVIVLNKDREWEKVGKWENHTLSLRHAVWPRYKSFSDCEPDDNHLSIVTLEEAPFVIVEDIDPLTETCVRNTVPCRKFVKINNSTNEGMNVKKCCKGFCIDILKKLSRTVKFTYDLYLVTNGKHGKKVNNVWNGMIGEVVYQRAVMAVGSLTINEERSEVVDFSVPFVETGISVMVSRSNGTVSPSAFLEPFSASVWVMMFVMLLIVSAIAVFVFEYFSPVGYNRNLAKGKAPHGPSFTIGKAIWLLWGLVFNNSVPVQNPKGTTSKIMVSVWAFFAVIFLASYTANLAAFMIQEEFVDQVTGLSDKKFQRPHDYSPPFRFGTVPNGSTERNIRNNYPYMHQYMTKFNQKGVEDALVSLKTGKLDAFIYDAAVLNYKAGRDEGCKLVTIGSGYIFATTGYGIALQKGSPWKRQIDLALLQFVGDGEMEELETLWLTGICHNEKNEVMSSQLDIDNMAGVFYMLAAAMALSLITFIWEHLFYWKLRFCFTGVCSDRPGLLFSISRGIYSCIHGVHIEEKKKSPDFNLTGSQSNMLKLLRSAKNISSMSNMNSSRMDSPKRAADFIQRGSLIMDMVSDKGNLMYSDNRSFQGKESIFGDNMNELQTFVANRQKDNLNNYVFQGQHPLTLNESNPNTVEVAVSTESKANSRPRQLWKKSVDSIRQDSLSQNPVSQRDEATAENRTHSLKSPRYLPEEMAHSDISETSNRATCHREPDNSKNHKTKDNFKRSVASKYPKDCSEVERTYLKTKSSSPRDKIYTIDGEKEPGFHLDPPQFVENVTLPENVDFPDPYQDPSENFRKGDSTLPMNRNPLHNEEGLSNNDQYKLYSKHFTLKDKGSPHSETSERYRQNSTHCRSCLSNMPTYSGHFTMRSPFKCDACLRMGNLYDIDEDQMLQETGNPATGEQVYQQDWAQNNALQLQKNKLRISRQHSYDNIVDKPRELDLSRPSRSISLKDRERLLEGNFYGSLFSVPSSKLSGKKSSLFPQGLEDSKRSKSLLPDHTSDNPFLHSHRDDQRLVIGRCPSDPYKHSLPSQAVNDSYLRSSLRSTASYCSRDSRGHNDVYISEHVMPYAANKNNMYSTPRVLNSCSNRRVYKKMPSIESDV

On to `O=c1cc(Cn2nc(C(F)(F)F)cc2Cl)nc2sc(C(F)(F)F)c(N3CC(F)C3)n12` [compound 254, 7-[[5-chloro-3-(trifluoromethyl)pyrazol-1-yl]methyl]-3-(3-fluoroazetidin-1-yl)-2-(trifluoromethyl)thiazolo[3,2-a]pyrimidin-5-one], for which, under “Table 3”, the EC50 (as a rule, the concentration giving half of the maximal effect) was 1.37 µM.

For `CNC(=O)c1c(C)sc2nc(Oc3cccc(C(F)(F)F)c3F)cc(=O)n12` [compound 59, 7-[2-fluoro-3-(trifluoromethyl)phenoxy]-N,2-dimethyl-5-oxo-thiazolo[3,2-a]pyrimidine-3-carboxamide], the EC50 (Table 3) stood at 8.22 µM.

`CSc1c(C(F)(F)F)sc2nc(Cn3nc(C(F)(F)F)cc3Cl)cc(=O)n12` [compound 219, 7-[[5-chloro-3-(trifluoromethyl)pyrazol-1-yl]methyl]-3-methylsulfanyl-2-(trifluoromethyl)thiazolo[3,2-a]pyrimidin-5-one]: the EC50 (Table 3) came to 10.5 µM.

Consider `N#Cc1cccc(Cc2cc(=O)n3c(C4CC4C(F)(F)F)c(Cl)sc3n2)c1F` (stereo not drawn) [compound 74, 3-[[2-chloro-5-oxo-3-[2-(trifluoromethyl)cyclopropyl]thiazolo[3,2-a]pyrimidin-7-yl]methyl]-2-fluoro-benzonitrile], for which the EC50 (Table 3) came out at 0.507 µM.

`Cc1sc2nc(COc3ccc(C(F)(F)F)cc3)cc(=O)n2c1[C@@H]1C[C@H]1CO` (relative stereo) [Example 4.10, 3-(trans-2-(hydroxymethyl)cyclopropyl)-2-methyl-7-((4-(trifluoromethyl)phenoxy)methyl)-5H-thiazolo[3,2-a] pyrimidin-5-one]: for the setting “Table 2”, the EC50 is 4.3 µM and the Max % is on record as 108%.

Take `O=c1cc(Cn2nc(Cl)cc2C(F)(F)F)nc2scc(Cl)n12` [compound 236, 3-chloro-7-[[3-chloro-5-(trifluoromethyl)pyrazol-1-yl]methyl]thiazolo[3,2-a]pyrimidin-5-one]: the EC50 (Table 3) came to 44.5 µM.

Take `CCN(Cc1cc(=O)n2c(C3CC3C(N)=O)c(C)sc2n1)c1ccc(F)cc1` (stereo not drawn) [Example 14.1, 2-[7-[(N-ethyl-4-fluoro-anilino)methyl]-2-methyl-5-oxo-thiazolo[3,2-a]pyrimidin-3-yl]cyclopropanecarboxamide]: where the note is “Table 2”, the EC50 was found to be 2.6 µM and the Max % was 163%.

For the molecule `Cc1sc2nc(COc3ccc(F)cc3)cc(=O)n2c1C(=O)NCCCO` [Example 1.14, 7-((4-fluorophenoxy)methyl)-N-(3-hydroxypropyl)-2-methyl-5-oxo-5H-thiazolo[3,2-a]pyrimidine-3-carboxamide], where the note is “Table 2”, the Max % is given as 42.7%.

As for `CCNC(=O)c1c(C)sc2nc(CN(CC)c3ccc(Cl)cn3)cc(=O)n12` [compound 152, 7-[[(5-chloro-2-pyridyl)-ethyl-amino]methyl]-N-ethyl-2-methyl-5-oxo-thiazolo[3,2-a]pyrimidine-3-carboxamide], the EC50 (Table 3) stood at 2.85 µM.

Take `O=c1cc(Cn2nc(C(F)(F)F)cc2Cl)nc2scc(C(F)(F)F)n12` [compound 239, 7-[[5-chloro-3-(trifluoromethyl)pyrazol-1-yl]methyl]-3-(trifluoromethyl)thiazolo[3,2-a]pyrimidin-5-one]: the EC50 (Table 3) was 14.2 µM.

In the case of `O=c1cc(Cn2nc(C(F)(F)F)cc2Cl)nc2sc3c(n12)CCC3` [compound 89], for the setting “Table 3”, the EC50 was 9.04 µM.

On to `Cc1sc2nc(Cc3cncc4ccccc34)cc(=O)n2c1[C@@H]1C[C@H]1CO` (relative stereo) [Example 20.4, 3-(trans-2-(hydroxymethyl)cyclopropyl)-7-(isoquinolin-4-ylmethyl)-2-methyl-5H-thiazolo[3,2-a]pyrimidin-5-one], for which, under “Table 2”, the EC50 was found to be 8.5 µM and the Max % was 147%.

Consider `Cc1sc2nc(Cn3ncc4ccc(F)cc43)cc(=O)n2c1[C@@H]1C[C@H]1CO` (relative stereo) [Example 15.23, 7-[(6-fluoroindazol-1-yl)methyl]-3-[trans-2-(hydroxymethyl)cyclopropyl]-2-methyl-thiazolo[3,2-a]pyrimidin-5-one], for which, where the note is “Table 2”, the EC50 was found to be 1.9 µM and the Max % was 143%.

`Cc1sc2nc(Cc3cccc(C#N)c3F)cc(=O)n2c1C1CC1C` (stereo not drawn) [compound 10, 2-fluoro-3-[[2-methyl-3-(2-methylcyclopropyl)-5-oxo-thiazolo[3,2-a]pyrimidin-7-yl]methyl]benzonitrile]: the EC50 (Table 3) is 0.471 µM.

As for `CC(=O)c1c(C)sc2nc(Cn3nc(Cl)cc3C(F)(F)F)cc(=O)n12` [compound 120, 3-acetyl-7-[[3-chloro-5-(trifluoromethyl)pyrazol-1-yl]methyl]-2-methyl-thiazolo[3,2-a]pyrimidin-5-one], under “Table 3”, the EC50 came out at 0.995 µM.

Turning to `Cc1sc2nc(Cn3nc(Cl)cc3C(F)(F)F)cc(=O)n2c1C(C)O` (stereo not drawn) [compound 111, 7-[[3-chloro-5-(trifluoromethyl)pyrazol-1-yl]methyl]-3-(1-hydroxyethyl)-2-methyl-thiazolo[3,2-a]pyrimidin-5-one], where the note is “Table 3”, the EC50 was determined as 6 µM.

Take `Cc1sc2nc(COc3ccc(F)cc3)cc(=O)n2c1C1CC1C` (stereo not drawn) [Example 4.25, 7-(4-Fluorophenoxymethyl)-2-methyl-3-(2-methylcyclopropyl)-5H-[1,3]thiazolo[3,2-a]pyrimidin-5-one]: under “Table 2”, the EC50 was determined as 2.8 µM and the Max % is given as 109%.

Turning to `Cc1sc2nc(Cn3ncc4cc(F)ccc43)cc(=O)n2c1[C@@H]1C[C@H]1CO` (relative stereo) [Example 15.26, 7-[(5-fluoroindazol-1-yl)methyl]-3-[trans-2-(hydroxymethyl)cyclopropyl]-2-methyl-thiazolo[3,2-a]pyrimidin-5-one], under “Table 2”, the 50% effective concentration (EC50) was determined as 3.8 µM and the Max % came to 123%.

Regarding `Cc1sc2nc(COc3ccc(C#N)cc3)cc(=O)n2c1[C@@H]1C[C@H]1CO` (relative stereo) [Example 4.13, 4-((3-(trans-2-(hydroxymethyl)cyclopropyl)-2-methyl-5-oxo-5H-thiazolo[3,2-a]pyrimidin-7-yl)methoxy)benzonitrile], for the setting “Table 2”, the EC50 stood at 31.1 µM and the Max % turned out to be 72.8%.

With `Cc1sc2nc(Cn3nc(C(F)(F)F)cc3Cl)cc(=O)n2c1C1CC1C` (single isomer, unassigned) [compound 154], the EC50 (Table 3) came out at 0.504 µM.

With `CCNC(=O)c1c(C)sc2nc(Cc3cccc(C4(F)CC4)c3F)cc(=O)n12` [compound 35, N-ethyl-7-[[2-fluoro-3-(1-fluorocyclopropyl)phenyl]methyl]-2-methyl-5-oxo-thiazolo[3,2-a]pyrimidine-3-carboxamide], the EC50 (Table 3) was 3.99 µM.

`CCc1sc2nc(CN(CC)c3ccc(F)cc3)cc(=O)n2c1-c1cncnc1` [Example 5.16, 2-ethyl-7-((ethyl(4-fluorophenyl)amino)methyl)-3-(pyrimidin-5-yl)-5H-thiazolo[3,2-a]pyrimidin-5-one]: where the note is “Table 2”, the concentration giving a half-maximal response (EC50) came out at 2.5 µM and the Max % came out at 157%.

Regarding `Cc1sc2nc(Cc3cccc(C#N)c3F)cc(=O)n2c1C1CC1C(F)(F)F` (stereo not drawn) [compound 38, 2-fluoro-3-[[2-methyl-5-oxo-3-[2-(trifluoromethyl)cyclopropyl]thiazolo[3,2-a]pyrimidin-7-yl]methyl]benzonitrile], the EC50 (Table 3) was 0.533 µM.

As to `CC(=O)c1c(C)sc2nc(COc3ccc(F)cc3)cc(=O)n12` [Example 2.5, 3-acetyl-7-((4-fluorophenoxy)methyl)-2-methyl-5H-thiazolo[3,2-a]pyrimidin-5-one], under “Table 2”, the EC50 is 32.9 µM and the Max % was 115%.
